Where two headings read alike, the source gives them in different places.
Columns and labels:
PP1 = PP1 phosphatase inhibition, general phosphatase assay using para-nitrophenylphosphate; format: biochemical; conditions: read-out: IC50 Target PP1
From the text: (§1) Assays protocols for the other enzymes mentioned herein (MtPTPA, PP1, VHR, PTP1B) are disclosed in Schweizer R A S, Atanasov, G A, Frey B M, and Odermatt A, Mol. Cell. Endocrinol. 2003, 212, 41-49 and Barratte, B., Meijer L., Galaktionov K. & Beach D, Anticancer Res. 1992, 12, 873-880. For determination of the phosphatase activity, a general phosphatase assay using para-nitrophenylphosphate was applied.

VHR = VHR (Homo sapiens, UniProt P51452); assay: VHR phosphatase inhibition, general phosphatase assay using para-nitrophenylphosphate; format: biochemical; conditions: read-out: IC50 Target VHR
From the text: as §1

Cdc25A = molecular target: T1, Cdc25A (Homo sapiens, UniProt P30304); assay: Cdc25A phosphatase inhibition; format: biochemical
T1 sequence (P30304 1-524): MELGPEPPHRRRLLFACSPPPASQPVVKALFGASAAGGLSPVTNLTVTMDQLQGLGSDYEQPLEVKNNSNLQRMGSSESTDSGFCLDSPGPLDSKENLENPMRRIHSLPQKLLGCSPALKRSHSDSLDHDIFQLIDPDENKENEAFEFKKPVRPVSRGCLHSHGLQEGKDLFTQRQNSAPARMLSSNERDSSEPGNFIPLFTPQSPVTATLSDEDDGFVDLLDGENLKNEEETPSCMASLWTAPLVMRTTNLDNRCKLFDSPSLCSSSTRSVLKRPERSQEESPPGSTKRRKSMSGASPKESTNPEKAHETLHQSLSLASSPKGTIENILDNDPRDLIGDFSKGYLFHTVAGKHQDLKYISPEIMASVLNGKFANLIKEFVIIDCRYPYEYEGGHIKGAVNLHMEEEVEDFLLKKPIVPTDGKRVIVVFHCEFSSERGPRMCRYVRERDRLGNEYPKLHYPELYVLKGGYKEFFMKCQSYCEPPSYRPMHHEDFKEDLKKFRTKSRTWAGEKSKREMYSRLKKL
From the text: (§2) Assay protocols for Cdc25A, 11βHSD1, 11βHSD2, and AChE are described in detain in the publication of Koch M A, Wittenberg L O, Basu S, Jeyaraj D A, Gourzoulidou E, Reinecke K, Odermatt A, Waldmann H (Proc. Natl. Acad. Sci. U.S.A. 2004 Nov. 30; 101(48):16721-6) and in Koch M A et al., Proc. Natl. Acad. Sci. U.S.A. 2005 Nov. 29; 102 (48):17272-7.

MPTPA = MPTPA (Mycobacterium tuberculosis, UniProt P9WIA1); assay: MtPTPA phosphatase inhibition, general phosphatase assay using para-nitrophenylphosphate; format: biochemical
From the text: as §1

PTP1B = molecular target: T2, PTP1B (Homo sapiens, UniProt P18031); assay: PTP1B phosphatase inhibition, general phosphatase assay using para-nitrophenylphosphate; format: biochemical
T2 sequence (P18031 1-435): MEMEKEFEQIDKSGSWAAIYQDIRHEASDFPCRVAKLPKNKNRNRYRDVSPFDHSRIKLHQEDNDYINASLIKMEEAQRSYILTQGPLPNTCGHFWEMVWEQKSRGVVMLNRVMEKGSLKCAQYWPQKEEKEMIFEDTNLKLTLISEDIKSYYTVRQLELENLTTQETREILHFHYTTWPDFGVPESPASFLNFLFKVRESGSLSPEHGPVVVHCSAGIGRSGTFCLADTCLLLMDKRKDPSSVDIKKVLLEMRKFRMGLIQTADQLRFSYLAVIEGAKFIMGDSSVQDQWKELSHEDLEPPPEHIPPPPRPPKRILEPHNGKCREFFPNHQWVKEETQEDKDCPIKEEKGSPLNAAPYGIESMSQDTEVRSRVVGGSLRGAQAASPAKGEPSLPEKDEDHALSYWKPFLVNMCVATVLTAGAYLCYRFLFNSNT
From the text: as §1

11beta-HSD1 = 11beta-HSD1 (Homo sapiens, UniProt P28845); assay: biochemical; conditions: read-out: IC50 Target 11beta-HSD1
From the text: as §2

Chain of 11beta-HSD1 (P28845 whole entry): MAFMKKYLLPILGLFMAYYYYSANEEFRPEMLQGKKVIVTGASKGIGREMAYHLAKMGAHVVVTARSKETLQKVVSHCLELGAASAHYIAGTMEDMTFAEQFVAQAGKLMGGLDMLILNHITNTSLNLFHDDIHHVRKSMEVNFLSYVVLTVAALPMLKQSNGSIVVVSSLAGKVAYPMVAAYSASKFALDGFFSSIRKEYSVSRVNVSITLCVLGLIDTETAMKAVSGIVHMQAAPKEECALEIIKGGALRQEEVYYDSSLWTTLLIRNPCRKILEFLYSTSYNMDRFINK
Chain of MPTPA (P9WIA1 whole entry): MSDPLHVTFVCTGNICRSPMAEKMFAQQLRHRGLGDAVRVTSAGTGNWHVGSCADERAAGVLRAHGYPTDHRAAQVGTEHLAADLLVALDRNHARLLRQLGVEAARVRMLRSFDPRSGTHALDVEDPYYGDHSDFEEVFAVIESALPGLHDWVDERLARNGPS
Chain of VHR (P51452 whole entry, species assumed): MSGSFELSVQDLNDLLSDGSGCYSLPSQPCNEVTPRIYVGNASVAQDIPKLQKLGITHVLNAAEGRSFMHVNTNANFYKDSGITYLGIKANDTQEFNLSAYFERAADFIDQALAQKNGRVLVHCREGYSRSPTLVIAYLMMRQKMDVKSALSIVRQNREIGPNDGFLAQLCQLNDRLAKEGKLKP

Row | SMILES | IC50 (PP1) | IC50 (VHR) | IC50 (MPTPA; read-out: IC50 Target MPTPA) | IC50 (PTP1B; read-out: IC50 Target PTP1B) | further results
1 | CC1=C2CCC[C@H](O)[C@@]2(C)C/C(=C\c2ccc(C#Cc3cccc(F)c3)cc2)C1=O [Compound 49, (3E,4aS,5S)-3-{4-[2-(3-Fluorphenyl)ethinyl]benzyliden}-4,4a,5,6,7,8-hexahydro-5-hydroxy-1,4a-dimethylnaphthalen-2(3H)-one] | < 10 µM | 10 to 50 µM |  |  | IC50 (Cdc25A; read-out: IC50 Target Cdc25A): < 10 µM
2 | CC1=C2CC/C(=C\c3ccco3)C(=O)[C@@]2(C)CCC1O (stereo partly drawn) [Compound 25, (2E,8aS)-2-[(Furan-2-yl)methylen]-3,4,6,7,8,8a-hexahydro-6-hydroxy-5,8a-dimethylnaphthalen-1(2H)-one] | 10 to 50 µM | 10 to 50 µM | 10 to 50 µM |  | 
3 | CC1=C2CCC[C@H](O)[C@@]2(C)CCC1=O [Compound 413, (4aS,5S)-5-Hydroxy-1,4a-dimethyl-4,4a,5,6,7,8-hexahydro-3H-naphthalen-2-one] |  | 10 to 50 µM | 10 to 50 µM | 10 to 50 µM | 
4 | CC1(CCCc2ccccc2)C(=O)CC[C@@]2(C)C1CCC[C@@H]2O (stereo partly drawn) [Compound 397, (4aS,5S)-5-Hydroxy-1,4a-dimethyl-1-(3-phenyl-propyl)-octahydro-naphthalen-2-one] | 10 to 50 µM | 10 to 50 µM |  |  | IC50 (Cdc25A; read-out: IC50 Target Cdc25A): 10 to 50 µM
5 | COc1ccc(/C=C2\C[C@@]3(C)C(=C(C)C2=O)CCC[C@@H]3O)cc1 [Compound 24, (3E,4aS,5S)-3-(4-Methoxybenzyliden)-4,4a,5,6,7,8-hexahydro-5-hydroxy-1,4a-dimethylnaphthalen-2(3H)-on] |  | 10 to 50 µM |  | 10 to 50 µM | IC50 (11beta-HSD1): < 10 µM; IC50 (Cdc25A; read-out: IC50 Target Cdc25A): 10 to 50 µM; IC50 (MPTPA): 10 to 50 µM
6 | CCC(c1ccc(I)cc1)C1C[C@@]2(C)C(=C(C)C1=O)CCC[C@@H]2O (stereo partly drawn) [Compound 412, (4aS,5S)-5-Hydroxy-3-[1-(4-iodo-phenyl)-propyl]-1,4a-dimethyl-4,4a,5,6,7,8-hexahydro-3H-naphthalen-2-one] |  | 10 to 50 µM | 10 to 50 µM | 10 to 50 µM | 
7 | CC1=C2CCC[C@H](O)[C@@]2(C)CC(=Cc2ccc(C#CCN(C)C)cc2)C1=O [Compound 396, (4aS,5S)-3-[4-(3-Dimethylamino-prop-1-ynyl)-benzylidene]-5-hydroxy-1,4a-dimethyl-4,4a,5,6,7,8-hexahydro-3H-naphthalen-2-one] |  | 10 to 50 µM |  | 10 to 50 µM | IC50 (MPTPA): 10 to 50 µM
8 | CC1=C2CCC[C@H](O)[C@@]2(C)C/C(=C\c2ccc(C#C[Si](C)(C)C)cc2)C1=O [Compound 53, (3E,4aS,5S)-3-{4-[2-(Trimethylsilyl)ethinyl]benzyliden}-4,4a,5,6,7,8-hexahydro-5-hydroxy-1,4a-dimethylnaphthalen-2(3H)-on] | 10 to 50 µM |  |  |  | IC50 (Cdc25A): 10 to 50 µM; IC50 (PTP1B): 10 to 50 µM
9 | CC1=C(/C=C2\C[C@@]3(C)C(CCC[C@@H]3O)C(C)C2=O)NCC1 (stereo partly drawn) [Compound 158, (3E,4aS,5S)-Octahydro-3-[(4,5-dihydro-3-methyl-1H-pyrrol-2-yl)methylen]-5-hydroxy-1,4a-dimethylnaphthalen-2(1H)-one] |  | 10 to 50 µM | 10 to 50 µM | 10 to 50 µM | 
10 | C/C=C1\CC[C@@]2(C)C(=C1C)CCC[C@@H]2O [Compound 411, (2E,4aS,5S)-6-Ethylidene-5,8a-dimethyl-1,2,3,4,6,7,8,8a-octahydro-naphthalen-1-ol] | 10 to 50 µM |  |  |  | 
11 | C=C(C)C#Cc1ccc(/C=C2\C[C@@]3(C)C(=C(C)C2=O)CCC[C@@H]3O)cc1 [Compound 56, (3E,4aS,5S)-3-[4-(3-Methylbut-3-en-1-inyl)benzyliden]-4,4a,5,6,7,8-hexahydro-5-hydroxy-1,4a-dimethylnaphthalen-2(3H)-on] |  | 10 to 50 µM |  | 10 to 50 µM | IC50 (MPTPA): 10 to 50 µM
12 | CCCCCCCCCCCCC#Cc1ccc(/C=C2\C[C@@]3(C)C(CCC[C@@H]3O)C(C)C2=O)cc1 (stereo partly drawn) [Compound 133, (E,4aS,5S)-3-[4-(Tetradec-1-inyl)benzyliden]-octahydro-5-hydroxy-1,4a-dimethylnaphthalen-2(1H)-one] |  | 10 to 50 µM | 10 to 50 µM |  | 
13 | CCCCCCCCCCCCCCC#Cc1ccc(/C=C2\C[C@@]3(Cc4ccccc4)C(=C(C)C2=O)CCC[C@@H]3O)cc1 [Compound 128, (3E,4aS,5S)-3-[4-(Hexadec-1-inyl)benzyliden]-4a-benzyl-4,4a,5,6,7,8-hexahydro-5-hydroxy-1-methylnaphthalen-2(3H)-one] |  | 10 to 50 µM | 10 to 50 µM |  | 
14 | CC1=C2CCC[C@H](O)[C@@]2(C)C/C(=C\c2ccc(C#CCCO)cc2)C1=O [Compound 55, (3E,4aS,5S)-3-[4-(4-Hydroxybut-1-inyl)benzyliden]-4,4a,5,6,7,8-hexahydro-5-hydroxy-1,4a-dimethylnaphthalen-2(3H)-one] |  | 10 to 50 µM |  | 10 to 50 µM | IC50 (Cdc25A; read-out: IC50 Target Cdc25A): < 10 µM; IC50 (MPTPA): 10 to 50 µM
15 | CC1=C2CCC[C@H](O)[C@@]2(C)C/C(=C\c2cc(Cl)cs2)C1=O [Compound 12, (3E,4aS,5S)-3-[(4-Chlorthiophen-2-yl)methylen]-4,4a,5,6,7,8-hexahydro-5-hydroxy-1,4a-dimethylnaphthalen-2(3H)-one] | 10 to 50 µM |  |  | 10 to 50 µM | IC50 (11beta-HSD1): < 10 µM
16 | CC(=O)Oc1cccc(/C=C2\C[C@@]3(C)C(=C(C)C2=O)CCC[C@@H]3O)c1 [Compound 26, 3-{(1E)-[(4S,4aS)-1,2,3,4,4a,5-Hexahydro-4-hydroxy-4a,8-dimethyl-7-oxonaphthalen-6(7H)-yliden]methyl}phenylacetat] | 10 to 50 µM | 10 to 50 µM |  | 10 to 50 µM | IC50 (11beta-HSD1): < 10 µM
17 | CC1=C2CCCC(O)C2(C)CC(=Cc2ccc(C#CCCCC#N)cc2)C1=O [Compound 47, 6-{4-{(1E)-[(43,4aS)-1,2,3,4,4a,5-Hexahydro-4-hydroxy-4a,8-dimethyl-7-oxonaphthalen-6(7H)-yliden]-methyl}phenyl}hex-5-in-nitril] | < 10 µM | 10 to 50 µM |  | 10 to 50 µM | IC50 (Cdc25A; read-out: IC50 Target Cdc25A): 10 to 50 µM
18 | CCCCCCCCCCC#Cc1ccc(/C=C2\C[C@@]3(C)C(=C(C)C2=O)CCC[C@@H]3O)cc1 [Compound 45, (3E,4aS,5S)-3-[4-(Dodec-1-inyl)benzyliden]-4,4a,5,6,7,8-hexahydro-5-hydroxy-1,4a-dimethyl-naphthalen-2(3H)-on] | < 10 µM | 10 to 50 µM |  | 10 to 50 µM | 
19 | CCCCCCCCCC#Cc1ccc(/C=C2\C[C@@]3(C)C(CCC[C@@H]3O)C(C)C2=O)cc1 (stereo partly drawn) [Compound 131, (E,4aS,5S)-3-[4-(Undec-1-inyl)benzyliden]-octahydro-5-hydroxy-1,4a-dimethylnaphthalen-2(1H)-one] |  | 10 to 50 µM | 10 to 50 µM |  | 
20 | CC1=C2CCC[C@H](O)[C@@]2(C)C/C(=C\c2ccc([N+](=O)[O-])cc2)C1=O [Compound 17, (3E,4aS,5S)-3-(4-Nitrobenzyliden)-4,4a,5,6,7,8-hexahydro-5-hydroxy-1,4a-dimethylnaphthalen-2(3H)-one] | 10 to 50 µM |  |  | 10 to 50 µM | 
21 | CC1=C2CCC[C@H](O)[C@@]2(C)C/C(=C\c2cc3ccccc3o2)C1=O [Compound 4, (3E,4aS,5S)-3-[(Benzofuran-2-yl)methylen]-4,4a,5,6,7,8-hexahydro-5-hydroxy-1,4a-dimethyl-naphthalen-2(3H)-one] | 10 to 50 µM |  |  | 10 to 50 µM | IC50 (11beta-HSD1): < 10 µM; IC50 (Cdc25A; read-out: IC50 Target Cdc25A): 10 to 50 µM

Reference: patent US20090062401A1, “DECALINE-DERIVED COMPOUNDS AS […] ACTIVE AGENTS” (UNIVERSITAT DORTMUND, priority 2004, published 2009)
